The target of one data set is T1, HCMV polymerase (Human cytomegalovirus, UniProt P08546).
T1 construct: made in house; host or cells: recombinant baculovirus-infected SF-9 cells
Briefly: HCMV polymerase assay (scintillation proximity assay, modified version). Type of data set: biochemical. Conditions: for IC50: modified HCMV polymerase SPA assay, compounds diluted in 100% DMSO, 4.5 mM DTT. How it is done:
The HCMV polymerase assay is performed using a scintillation proximity assay (SPA) as described in several references, such as N. D. Cook, et al., Pharmaceutical Manufacturing International, pages 49-53 (1992); K. Takeuchi, Laboratory Practice, September issue (1992); U.S. Pat. No. 4,568,649 (1986); which are incorporated by reference herein. Reactions are performed in 96-well plates. The assay is conducted in 100 μl volume with 5.4 mM HEPES (pH 7.5), 11.7 mM KCl, 4.5 mM MgCl2, 0.36 mg/ml BSA, and 90 nM ^3H-dTTP. Assays are run with and without CHAPS, (3-[(3-cholamidopropyl)-dimethylammonio]-1-propane-sulfonate) at a final concentration of 2 mM. HCMV polymerase is diluted in enzyme dilution buffer containing 50% glycerol, 250 mM NaCl, 10 mM HEPES (pH 7.5), 100 μg/ml BSA, and 0.01% sodium azide. The HCMV polymerase, which is expressed in recombinant baculovirus-infected SF-9 cells and purified according to literature procedures, is added at 10% (or 10 μl) of the final reaction volume, i.e., 100 μl. Compounds are diluted in 50% DMSO and 10 μl are added to each well. Control wells contain an equivalent concentration of DMSO. Unless noted otherwise, reactions are initiated via the addition of 6 nM biotinylated poly(dA)-oligo(dT) template/primer to reaction mixtures containing the enzyme, substrate, and compounds of interest. Plates are incubated in a 25° C. or 37° C. H2O bath and terminated via the addition of 40 μl/reaction of 0.5 M EDTA (pH 8) per well. Reactions are terminated within the time-frame during which substrate incorporation is linear and varied depending upon the enzyme and conditions used, i.e., 30 min. for HCMV polymerase. Ten μl of streptavidin-SPA beads (20 mg/ml in PBS/10% glycerol) are added following termination of the reaction. Plates are incubated 10 min. at 37° C., then equilibrated to room temperature, and counted on a Packard Topcount. Linear regressions are performed and IC50's are calculated using computer software.
A modified version of the above HCMV polymerase assay is performed as described above, but with the following changes: Compounds are diluted in 100% DMSO until final dilution into assay buffer. In the previous assay, compounds are diluted in 50% DMSO. 4.5 mM dithiotherotol (DTT) is added to the polymerase buffer. […] All results are listed as Polymerase IC50 (μM) values. In Table 1, the term “nd” refers to activity data not determined.

In another data set the target is HSV polymerase (Human herpesvirus 1, UniProt P04293). Kind of data set: HSV polymerase assay (Table 1, Polymerase IC50). Type of data set: biochemical. The note with it: modified polymerase SPA assay.
The target in a further data set is VZV polymerase (Varicella-zoster virus, UniProt P09252). Briefly: VZV polymerase assay (Table 1, Polymerase IC50). Type of data set: biochemical. Conditions: modified polymerase SPA assay.
Sequence of VZV polymerase (P09252 whole entry): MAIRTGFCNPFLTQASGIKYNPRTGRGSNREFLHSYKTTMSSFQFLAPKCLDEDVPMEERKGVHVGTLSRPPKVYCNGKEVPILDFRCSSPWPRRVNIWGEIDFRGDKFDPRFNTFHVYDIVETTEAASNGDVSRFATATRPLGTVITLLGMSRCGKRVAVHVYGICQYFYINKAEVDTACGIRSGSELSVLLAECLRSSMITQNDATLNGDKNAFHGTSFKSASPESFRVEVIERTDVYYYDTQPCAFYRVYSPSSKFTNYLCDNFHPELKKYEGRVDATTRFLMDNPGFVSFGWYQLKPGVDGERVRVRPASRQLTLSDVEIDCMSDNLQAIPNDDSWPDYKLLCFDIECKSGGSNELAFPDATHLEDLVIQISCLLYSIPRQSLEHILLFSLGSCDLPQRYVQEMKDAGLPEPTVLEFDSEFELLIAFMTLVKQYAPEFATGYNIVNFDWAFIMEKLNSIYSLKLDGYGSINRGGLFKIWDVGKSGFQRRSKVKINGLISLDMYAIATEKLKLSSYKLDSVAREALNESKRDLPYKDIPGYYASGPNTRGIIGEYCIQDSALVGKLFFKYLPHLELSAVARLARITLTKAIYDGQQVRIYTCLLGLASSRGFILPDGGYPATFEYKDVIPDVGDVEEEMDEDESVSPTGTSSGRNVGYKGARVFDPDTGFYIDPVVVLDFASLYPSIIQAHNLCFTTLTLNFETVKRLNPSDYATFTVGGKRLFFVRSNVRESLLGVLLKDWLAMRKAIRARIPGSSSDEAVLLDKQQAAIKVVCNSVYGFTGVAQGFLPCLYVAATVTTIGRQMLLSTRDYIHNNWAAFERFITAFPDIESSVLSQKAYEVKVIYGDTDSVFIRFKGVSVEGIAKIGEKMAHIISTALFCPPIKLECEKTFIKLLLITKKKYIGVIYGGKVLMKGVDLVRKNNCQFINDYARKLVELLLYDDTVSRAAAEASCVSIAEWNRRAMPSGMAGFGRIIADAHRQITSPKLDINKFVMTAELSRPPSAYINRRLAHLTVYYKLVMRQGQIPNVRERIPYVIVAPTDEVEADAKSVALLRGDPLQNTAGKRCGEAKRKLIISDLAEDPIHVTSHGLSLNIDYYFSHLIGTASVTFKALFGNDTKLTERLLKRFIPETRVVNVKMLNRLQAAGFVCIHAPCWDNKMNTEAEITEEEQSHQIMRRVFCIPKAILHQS

T1 sequence (P08546 whole entry): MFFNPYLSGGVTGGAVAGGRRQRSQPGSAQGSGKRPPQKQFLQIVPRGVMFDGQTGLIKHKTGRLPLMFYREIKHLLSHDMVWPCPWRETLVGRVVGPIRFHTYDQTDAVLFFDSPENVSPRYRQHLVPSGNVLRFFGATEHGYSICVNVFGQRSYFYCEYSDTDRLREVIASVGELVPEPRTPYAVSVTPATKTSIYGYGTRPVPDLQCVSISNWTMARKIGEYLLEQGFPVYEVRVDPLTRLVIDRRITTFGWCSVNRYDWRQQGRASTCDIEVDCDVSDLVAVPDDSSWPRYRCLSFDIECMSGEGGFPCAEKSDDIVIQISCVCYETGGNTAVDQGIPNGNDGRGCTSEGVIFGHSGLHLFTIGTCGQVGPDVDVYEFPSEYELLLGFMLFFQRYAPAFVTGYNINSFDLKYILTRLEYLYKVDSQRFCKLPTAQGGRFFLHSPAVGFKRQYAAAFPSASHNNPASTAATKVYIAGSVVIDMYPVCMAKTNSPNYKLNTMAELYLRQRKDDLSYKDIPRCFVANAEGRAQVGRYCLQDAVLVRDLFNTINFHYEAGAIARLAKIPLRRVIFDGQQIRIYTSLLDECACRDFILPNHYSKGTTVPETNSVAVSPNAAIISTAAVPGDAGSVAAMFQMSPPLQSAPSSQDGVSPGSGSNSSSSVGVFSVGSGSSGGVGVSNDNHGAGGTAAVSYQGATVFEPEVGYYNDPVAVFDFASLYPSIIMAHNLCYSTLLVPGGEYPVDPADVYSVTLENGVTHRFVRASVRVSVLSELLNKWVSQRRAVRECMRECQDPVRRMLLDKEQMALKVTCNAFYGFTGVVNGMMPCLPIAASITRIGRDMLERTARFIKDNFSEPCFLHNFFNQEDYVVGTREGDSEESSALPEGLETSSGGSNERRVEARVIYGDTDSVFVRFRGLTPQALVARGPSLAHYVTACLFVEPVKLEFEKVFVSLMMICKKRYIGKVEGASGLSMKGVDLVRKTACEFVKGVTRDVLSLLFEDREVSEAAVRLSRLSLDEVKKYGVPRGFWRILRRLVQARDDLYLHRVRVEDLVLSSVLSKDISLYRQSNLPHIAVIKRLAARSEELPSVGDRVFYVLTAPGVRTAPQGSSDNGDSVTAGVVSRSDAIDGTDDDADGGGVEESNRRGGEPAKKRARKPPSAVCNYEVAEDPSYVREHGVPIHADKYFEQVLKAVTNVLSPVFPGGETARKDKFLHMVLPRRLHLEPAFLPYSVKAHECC
Sequence of HSV polymerase (P04293 whole entry): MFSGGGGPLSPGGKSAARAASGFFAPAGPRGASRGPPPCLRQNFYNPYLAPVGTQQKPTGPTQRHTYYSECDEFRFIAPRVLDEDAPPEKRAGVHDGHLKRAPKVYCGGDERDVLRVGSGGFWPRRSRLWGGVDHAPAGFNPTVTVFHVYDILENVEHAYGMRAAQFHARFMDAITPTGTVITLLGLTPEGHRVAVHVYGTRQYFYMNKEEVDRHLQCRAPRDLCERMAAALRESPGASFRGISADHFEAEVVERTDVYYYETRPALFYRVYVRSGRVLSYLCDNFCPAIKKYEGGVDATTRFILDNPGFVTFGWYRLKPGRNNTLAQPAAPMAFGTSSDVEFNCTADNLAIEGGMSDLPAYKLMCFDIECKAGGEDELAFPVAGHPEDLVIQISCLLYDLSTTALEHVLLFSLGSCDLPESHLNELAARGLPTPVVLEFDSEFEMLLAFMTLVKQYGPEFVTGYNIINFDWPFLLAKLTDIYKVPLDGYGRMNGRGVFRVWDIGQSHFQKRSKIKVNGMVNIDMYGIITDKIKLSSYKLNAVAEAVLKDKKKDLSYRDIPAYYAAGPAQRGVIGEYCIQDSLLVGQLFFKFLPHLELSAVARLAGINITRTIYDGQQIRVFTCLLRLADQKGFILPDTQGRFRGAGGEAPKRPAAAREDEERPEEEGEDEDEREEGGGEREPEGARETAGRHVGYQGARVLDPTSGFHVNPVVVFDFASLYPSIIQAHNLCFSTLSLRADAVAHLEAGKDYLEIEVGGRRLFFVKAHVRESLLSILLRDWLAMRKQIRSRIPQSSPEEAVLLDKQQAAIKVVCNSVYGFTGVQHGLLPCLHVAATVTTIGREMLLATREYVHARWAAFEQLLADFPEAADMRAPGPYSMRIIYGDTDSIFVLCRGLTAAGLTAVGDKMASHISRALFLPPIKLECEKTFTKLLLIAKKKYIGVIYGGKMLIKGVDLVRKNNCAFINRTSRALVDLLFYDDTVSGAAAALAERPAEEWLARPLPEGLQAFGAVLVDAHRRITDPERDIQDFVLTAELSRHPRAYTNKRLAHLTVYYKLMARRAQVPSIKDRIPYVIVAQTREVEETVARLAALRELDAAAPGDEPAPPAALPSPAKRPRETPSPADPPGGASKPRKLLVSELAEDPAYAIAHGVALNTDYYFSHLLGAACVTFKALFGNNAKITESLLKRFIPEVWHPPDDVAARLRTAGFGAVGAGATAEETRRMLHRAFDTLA

Take `COc1nc2c(cc1I)c(=O)c(C(=O)NCc1ccc(Cl)cc1)cn2C` [Example 4, N-(4-Chlorobenzyl)-6-iodo-7-methoxy-1-methyl-4-oxo-1,4-dihydro[1,8]naphthyridine-3-carboxamide]: on HCMV polymerase, the IC50 came to 22300 nM.

`COc1nc2c(cc1CCCO)c(=O)c(C(=O)NCc1ccc(Cl)cc1)cn2C` [Example 7, N-(4-Chlorobenzyl)-6-(3-hydroxypropyl)-7-methoxy-1-methyl-4-oxo-1,4-dihydro[1,8]naphthyridine-3-carboxamide] returned an IC50 against HCMV polymerase of 460 nM.

Take `Cn1cc(C(=O)NCc2ccc(Cl)cc2)c(=O)c2ccc(=O)[nH]c21` [Example 5, N-(4-Chlorobenzyl)-1-methyl-4,7-dioxo-1,4,7,8-tetrahydro[1,8]naphthyridine-3-carboxamide]: on HCMV polymerase, the IC50 stood at 17100 nM.

`Cc1nc2c(cc1CCCO)c(=O)c(C(=O)NCc1ccc(Cl)cc1)cn2C` [Example 3, N-(4-chlorobenzyl)-6-(3-hydroxypropyl)-1,7-dimethyl-4-oxo-1,4-dihydro[1,8]naphthyridine-3-carboxamide] gave a melting point of 176 to 177 °C. At HSV polymerase, the midpoint of inhibition, the IC50, lay at 2400 nM. On VZV polymerase, this compound came in with an IC50 of 1400 nM. The same compound registered an IC50 against HCMV polymerase of 2700 nM.

Take `Cc1nc2c(cc1Br)c(=O)c(C(=O)NCc1ccc(Cl)cc1)cn2C` [Example 1, 6-bromo-N-(4-chlorobenzyl)-1,7-dimethyl-4-oxo-1,4-dihydro[1,8]naphthyridine-3-carboxamide]: the melting point was in the range of 266 to 268 °C.

The compound `Cc1nc2c(cc1C#CCO)c(=O)c(C(=O)NCc1ccc(Cl)cc1)cn2C` [Example 2, N-(4-chlorobenzyl)-6-(3-hydroxy-1-propynyl)-1,7-dimethyl-4-oxo-1,4-dihydro[1,8]naphthyridine-3-carboxamide] yielded a melting point of 217 to 218 °C. Moreover, the IC50 at HSV polymerase worked out at 1900 nM. The compound also showed an IC50 on VZV polymerase of 1100 nM. On HCMV polymerase, the IC50 turned out to be 1800 nM.

For the compound `COc1nc2c(cc1C#CCO)c(=O)c(C(=O)NCc1ccc(Cl)cc1)cn2C` [Example 6, N-(4-chlorobenzyl)-6-(3-hydroxy-1-propynyl)-7-methoxy-1-methyl-4-oxo-1,4-dihydro[1,8]naphthyridine-3-carboxamide], the IC50 against HCMV polymerase was determined as 1170 nM.

Regarding `CCOC(=O)c1cc2c(=O)c(C(=O)NCc3ccc(Cl)cc3)cn(C)c2nc1OC` [Example 8, Ethyl 6-{[(4-chlorobenzyl)amino]carbonyl}-2-methoxy-8-methyl-5-oxo-5,8-dihydro[1,8]naphthyridine-3-carboxylate], at 20 µM the inhibition on HCMV polymerase (at 20 μM) was 37%.

The values are drawn from US6693114B2, “4-oxo-1,4-dihydro[1,8]naphthyridine-3-carboxamides as antiviral agents” (Pharmacia & Upjohn Company, priority 2000, dated 2004).
